Assay results: patent US20060188913A1, “Methods and products for enhancing immune responses using imidazoquinoline compounds” (University of Iowa Research Foundation, priority 2001, published 2006)

Key:
Type in all cases: cell-based
hTLR9 [1] = biological target: T1, hTLR9 (Homo sapiens, UniProt Q9NR96, H530R/Q688R); assay: NF-kappa B luciferase activation in 293T cells transiently transfected with hTLR9; details: hTLR9-transfected 293T cells, positive control for transfection
T1 construct: 293-TLR9-Luc cells contain a genomic copy of the hTLR9 open reading frame and the NF-kappa B-luciferase cassette; expressed in transfected cells; host or cells: 293-TLR9-Luc (stably transfected human embryo kidney 293 cells)
T1 sequence (Q9NR96 26-1032 H530R/Q688R): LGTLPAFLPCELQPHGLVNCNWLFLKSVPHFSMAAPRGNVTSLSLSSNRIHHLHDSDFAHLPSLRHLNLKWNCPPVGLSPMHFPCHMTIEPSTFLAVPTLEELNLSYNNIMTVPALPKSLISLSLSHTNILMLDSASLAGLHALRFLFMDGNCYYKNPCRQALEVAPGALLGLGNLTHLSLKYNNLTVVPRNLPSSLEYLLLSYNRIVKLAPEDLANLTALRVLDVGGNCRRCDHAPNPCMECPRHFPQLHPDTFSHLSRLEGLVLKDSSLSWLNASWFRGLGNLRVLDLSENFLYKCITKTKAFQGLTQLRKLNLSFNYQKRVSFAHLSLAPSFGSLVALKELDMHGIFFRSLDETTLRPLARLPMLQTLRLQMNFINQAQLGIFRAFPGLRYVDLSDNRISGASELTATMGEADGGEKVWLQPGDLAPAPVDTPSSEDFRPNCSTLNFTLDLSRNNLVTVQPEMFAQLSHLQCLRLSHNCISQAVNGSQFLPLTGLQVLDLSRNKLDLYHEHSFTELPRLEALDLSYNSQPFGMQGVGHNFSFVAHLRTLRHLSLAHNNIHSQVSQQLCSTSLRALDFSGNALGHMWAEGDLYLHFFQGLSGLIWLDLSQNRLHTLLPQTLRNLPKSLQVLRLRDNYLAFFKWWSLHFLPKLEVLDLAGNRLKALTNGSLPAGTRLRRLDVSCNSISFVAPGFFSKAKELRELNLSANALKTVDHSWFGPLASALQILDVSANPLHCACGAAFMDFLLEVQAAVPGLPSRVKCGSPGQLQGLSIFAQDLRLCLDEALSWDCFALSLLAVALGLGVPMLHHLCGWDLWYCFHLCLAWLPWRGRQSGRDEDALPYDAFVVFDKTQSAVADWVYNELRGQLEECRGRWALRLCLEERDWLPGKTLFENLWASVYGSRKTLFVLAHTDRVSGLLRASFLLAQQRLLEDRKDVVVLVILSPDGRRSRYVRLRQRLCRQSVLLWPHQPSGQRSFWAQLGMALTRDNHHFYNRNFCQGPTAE
Experimental: (§1) Cells used for transfections were 293T (human embryo kidney cells, T-antigen transfected) or 293-TLR9-Luc (stable transfectants, human embryo kidney cells expressing the human TLR9 receptor and containing a genomic NF-kappa B-luciferase cassette).
Transfections were performed in six-well plates. Cells were plated the day before transfection at 4×10^5/well in DMEM+10% FCS.
Constructs: TLR cDNAs were cloned into pcDNA3.1. NF-kappa B activation was measured by using an 5× NF-kappa B-Luciferase construct (Stratagene). Transfection efficiency was determined by using a beta-galactosidase (beta-gal) reporter construct (p beta-Gal-Control, Clontech).
(§2) Stimulation was performed 24 h after transfection. Medium of the cells was reduced to 1 ml (without medium change) and cells were stimulated with indicated amounts of R-848, LPS, ODN 8954, 2006 and IL-1 beta for 16 h.
(§3) Cell extracts were prepared by lysing the cells in 100 μl reporter lysis buffer using the freeze-thaw method. NF-kappa B stimulation was measured through luciferase activity (Promega). All data were normalized for beta-gal expression. Stimulation indices were calculated in reference to luciferase activity of medium without addition of ODN.
293T cells, stably transfected with a NF-kappa B-luciferase reporter construct, were transiently transfected with plasmids (pcDNA3.1 constructs) coding for full length hTLR2, hTLR7, hTLR8 and hTLR9. […]

hTLR9 [2] = biological target: T1, hTLR9; assay: NF-kappa B luciferase activation in stably transfected 293-TLR9-Luc cells
Experimental: as §1, §2, §3
Since R-848 has immune modulatory properties, this experiment examined whether R-848-mediated immune responses are hTLR9-dependent. Cells stably transfected with hTLR9 and a NF-kappa B reporter construct (293-TLR-Luc cells) were incubated for 16 hours with IL-1, CpG ODN 2006, control non-CpG ODN 1982 (5′ […] 3′, SEQ ID NO:3), or increasing amounts of R-848. NF-kappa B activation was determined by measurement of luciferase activity. Activity is given in x-fold activation compared to luciferase activity in medium control.

human PBMC [3] = assay: IL-6 secretion by human PBMC (ELISA), with or without chloroquine; details: 10 μg/ml chloroquine, 24 h, IL-6, FIG. 9
Experimental: Vasilakos J P et al. (2000) Cell Immunol 204:64-74. Human PBMC (n=3) were cultured for 24 h with varying concentrations of R-848 ([…]), varying concentrations of CpG ODN 2006 (0.8-6.0 μg/ml), SEB (50 ng/ml), or media alone. […] IL-6 in the supernatants was measured by ELISA. […] TLR9 is believed to have intracellular expression only.

human PBMC [4] = assay: IFN-gamma secretion by human PBMC (ELISA); details: 48 hours, compared to R-848, not shown
Experimental: This experiment investigated the induction of the Th1 cytokine IFN-gamma as well as the Th1-related chemokine IP-10 (IFN-gamma inducible protein). Unfractionated human PBMC from three donors were incubated for 48 hours in the presence of varying concentrations of R-848 (0.01-1.0 μg/ml), varying concentrations of CpG ODN 2006 (0.2-3.0 μg/ml), varying concentrations of negative control ODN 5177 (0.2-3.0 μg/ml), SEB (50 ng/ml), or media alone, and then the concentrations of IP-10 and IFN-gamma in the supernatant were measured by ELISA.

CpG ODN 2006
NF-kappa B activation (hTLR9 [1]): 3 fold
NF-kappa B activation (x-fold activation compared to luciferase activity in medium control) (hTLR9 [2]; 293-TLR-Luc cells, 16 hours, 1 to 12 μg/ml): 10- to 30 fold
hTLR9-mediated NF-kappa B activation (in words) (hTLR9 [2]; cells expressing hTLR9 alone, 293-TLR-Luc with pcDNA (empty vector)): hTLR9-mediated activation of NF-kappa B by CpG ODN 2006
inhibition of the stimulant's activity by chloroquine (in words) (human PBMC [3]): completely abolish
IFN-gamma induction (human PBMC [4]): The same result was obtained
